Laboratory results: ChEMBL document CHEMBL2434942, “β-Ionone derived chalcones as potent antiproliferative agents” (Eur J Med Chem, 2013)
Calls of active or inactive are those of the source. The calls are words filed in the database; no cut-off is given here.

Key:
[1] = Cytotoxicity against human Hep cells after 48 hrs by SRB assay; format: functional, cell-based
[2] = system: HeLa; test: Cytotoxicity against human HeLa cells after 48 hrs by SRB assay; format: functional, cell-based
[3] = system: IMR-32; test: Cytotoxicity against human IMR32 cells after 48 hrs by SRB assay; format: functional, cell-based; conditions: IMR-32, 48 h
[4] = system: PC-3; test: Cytotoxicity against human PC3 cells after 48 hrs by SRB assay; format: functional, cell-based; conditions: PC-3, 48 h
[5] = system: MCF7; test: Cytotoxicity against human MCF7 cells after 48 hrs by SRB assay; format: functional, cell-based; conditions: MCF7, 48 h
[6] = system: CHO; test: Cell cycle arrest in CHO cells assessed as accumulation at sub-G0 phase at 10 uM after 12 hrs using propidium iodide staining by FACS analysis (reference value: 19.8%); format: functional, Cricetulus griseus
[7] = system: CHO; test: Induction of apoptosis in CHO cells assessed as viable cells at 10 uM after 12 hrs using Annexin V/PI staining by flow cytometry (reference value: 91.8%); format: functional; conditions: Cricetulus griseus, read-out: Activity
[8] = system: CHO; test: Induction of apoptosis in CHO cells assessed as necrotic cells at 10 uM after 12 hrs using Annexin V/PI staining by flow cytometry (reference value: 3%); format: functional, Cricetulus griseus
[9] = system: CHO; test: Induction of apoptosis in CHO cells assessed as late apoptotic cells at 10 uM after 12 hrs using Annexin V/PI staining by flow cytometry (reference value: 1%); format: functional, Cricetulus griseus
[10] = system: CHO; test: Induction of apoptosis in CHO cells assessed as early apoptotic cells at 10 uM after 12 hrs using Annexin V/PI staining by flow cytometry (reference value: 4.3%); format: functional, Cricetulus griseus
[11] = system: CHO; test: Induction of apoptosis in CHO cells assessed as late apoptotic cells at 15 uM after 12 hrs using Annexin V/PI staining by flow cytometry (reference value: 1%); format: functional, Cricetulus griseus
[12] = system: CHO; test: Induction of apoptosis in CHO cells assessed as necrotic cells at 5 uM after 12 hrs using Annexin V/PI staining by flow cytometry (reference value: 3%); format: functional, Cricetulus griseus
[13] = system: CHO; test: Cytotoxicity against CHO cells after 48 hrs by SRB assay; format: functional, cell-based; conditions: Cricetulus griseus
[14] = system: CHO; test: Induction of apoptosis in CHO cells assessed as early apoptotic cells at 15 uM after 12 hrs using Annexin V/PI staining by flow cytometry (reference value: 4.3%); format: functional, Cricetulus griseus
[15] = system: CHO; test: Induction of apoptosis in CHO cells assessed as necrotic cells at 15 uM after 12 hrs using Annexin V/PI staining by flow cytometry (reference value: 3%); format: functional, Cricetulus griseus
[16] = system: CHO; test: Induction of apoptosis in CHO cells assessed as early apoptotic cells at 5 uM after 12 hrs using Annexin V/PI staining by flow cytometry (reference value: 4.3%); format: functional, Cricetulus griseus
[17] = system: CHO; test: Induction of apoptosis in CHO cells assessed as viable cells at 5 uM after 12 hrs using Annexin V/PI staining by flow cytometry (reference value: 91.8%); format: functional; conditions: Cricetulus griseus, read-out: Activity
[18] = system: CHO; test: Induction of apoptosis in CHO cells assessed as viable cells at 15 uM after 12 hrs using Annexin V/PI staining by flow cytometry (reference value: 91.8%); format: functional; conditions: Cricetulus griseus, read-out: Activity
[19] = system: CHO; test: Cell cycle arrest in CHO cells assessed as accumulation at sub-G0 phase at 5 uM after 12 hrs using propidium iodide staining by FACS analysis (reference value: 19.8%); format: functional, Cricetulus griseus
[20] = system: CHO; test: Cell cycle arrest in CHO cells assessed as accumulation at sub-G0 phase at 15 uM after 12 hrs using propidium iodide staining by FACS analysis (reference value: 19.8%); format: functional, Cricetulus griseus
[21] = system: CHO; test: Induction of apoptosis in CHO cells assessed as late apoptotic cells at 5 uM after 12 hrs using Annexin V/PI staining by flow cytometry (reference value: 1%); format: functional, Cricetulus griseus
[22] = system: CHO; test: Induction of apoptosis in CHO cells assessed as cell shrinkage, membrane blebbing and formation of apoptotic body at 5 to 15 uM after 24 hrs by inverted light microscopic analysis; format: functional, cell-based; conditions: Cricetulus griseus
[23] = system: CHO; test: Induction of apoptosis in CHO cells assessed as cell shrinkage, membrane blebbing and formation of apoptotic body at 5 to 15 uM after 6 to 12 hrs by inverted light microscopic analysis; format: functional, cell-based; conditions: Cricetulus griseus

Compound	IC50 [1] [µM]	IC50 [2] [µM]	IC50 [3] [µM]	IC50 [4] [µM]	IC50 [5] [µM]	other results
CC1=C(/C=C/C(=O)/C=C/c2cccnc2)C(C)(C)CCC1	45.6	17.4	25.3	10.2	15.5	–
CC1=C(/C=C/C(=O)/C=C/c2ccc(C)cc2)C(C)(C)CCC1	44.1	20.4	19.2	21.5	23.8	–
CC1=C(/C=C/C(=O)/C=C/c2ccccc2Cl)C(C)(C)CCC1	54.2	21.8	13.7	11.3	54.6	–
CC1=C(/C=C/C(=O)/C=C/c2ccccc2[N+](=O)[O-])C(C)(C)CCC1	44.9	36.1	13.5	9.5	10.1	–
CC1=C(/C=C/C(=O)/C=C/c2ccc(F)cc2)C(C)(C)CCC1	55.8	32.2	7.4	8.2	6.2	–
CC1=C(/C=C/C(=O)/C=C/c2ccc(Cl)cc2)C(C)(C)CCC1	90.6	33.2	52.3	9.5	10.2	–
O=c1[nH]cc(F)c(=O)[nH]1 [FLUOROURACIL]	0.5	–	1.3	–	–	–
CC1=C(/C=C/C(=O)/C=C/c2ccccc2Br)C(C)(C)CCC1	16.3	57.9	16.3	11.4	20.7	–
CC1=C(/C=C/C(=O)/C=C/c2ccccc2F)C(C)(C)CCC1	23.6	41.9	15.6	3.4	11	–
CC1=C(/C=C/C(=O)/C=C/c2ccccc2C)C(C)(C)CCC1	41	> 100	63.2	44.1	44.6	–
COc1cc(/C=C/C(=O)/C=C/C2=C(C)CCCC2(C)C)cc(OC)c1OC	45.5	73.2	55.5	32.6	18.7	–
CC1=C(/C=C/C(=O)/C=C/c2cccc3ccccc23)C(C)(C)CCC1	> 100	65.4	43.8	56.4	53.2	–
CC[C@@]1(O)C(=O)OCc2c1cc1n(c2=O)Cc2cc3ccccc3nc2-1 [CAMPTOTHECIN]	–	–	–	–	–	Activity [6]: 50.5%; viability at 10 µM [7]: 74.8%; Activity [8]: 21.6%; Activity [9]: 2.4%; Activity [10]: 1.2%
CC1=C(/C=C/C(=O)/C=C/c2ccc([N+](=O)[O-])cc2)C(C)(C)CCC1	55.5	28.7	3.2	1.9	5.5	Activity [6]: 36%; Activity [11]: 7.5%; Activity [12]: 19.4%; Activity [13]: Dose-dependent effect; IC50 [13]: 10 µM; Activity [14]: 1.1%; Activity [15]: 39.1%; viability at 10 µM [7]: 59.5%; Activity [16]: 0.8%; Activity [8]: 33.3%; viability at 5 µM [17]: 74.7%; viability at 15 µM [18]: 52.3%; Activity [19]: 30.5%; Activity [9]: 5.8%; Activity [20]: 48.1%; Activity [10]: 1.4%; Activity [21]: 5.1%; Activity [22]: Active; Activity [23]: Active
CC(=O)O[C@H]1C(=O)[C@@]2(C)[C@H]([C@H](OC(=O)c3ccccc3)[C@]3(O)C[C@H](OC(=O)[C@H](O)[C@@H](NC(=O)c4ccccc4)c4ccccc4)C(C)=C1C3(C)C)[C@]1(OC(C)=O)CO[C@@H]1C[C@@H]2O [PACLITAXEL]	–	–	–	1.5	0.5	–
CO[C@@]12[C@H](COC(N)=O)C3=C(C(=O)C(C)=C(N)C3=O)N1C[C@@H]1N[C@@H]12 [MITOMYCIN]	–	2	–	–	–	–
CC1=C(/C=C/C(=O)/C=C/c2ccc(Br)cc2)C(C)(C)CCC1	34.5	88.8	10.4	18.9	20.1	–
COc1ccccc1/C=C/C(=O)/C=C/C1=C(C)CCCC1(C)C	38.9	88.2	19.2	14.2	13.4	–
CC1=C(/C=C/C(=O)/C=C/c2ccccc2)C(C)(C)CCC1	62.2	70.2	20.4	12.4	10.6	–
CC1=C(/C=C/C(=O)/C=C/c2ccc(C#N)cc2)C(C)(C)CCC1	45.6	22.2	23.4	11.9	13.2	–
COc1ccccc1/C=C/C=C/C(=O)/C=C/C1=C(C)CCCC1(C)C	65.3	33.5	72.4	25.3	55.4	–
CC1=C(/C=C/C(=O)/C=C/c2ccc(Cl)c(Cl)c2)C(C)(C)CCC1	> 100	> 100	72.4	35.5	53.5	–
COc1ccc(/C=C/C(=O)/C=C/C2=C(C)CCCC2(C)C)cc1OC	72.4	85	29.2	30.2	35.6	–
COc1ccc(/C=C/C(=O)/C=C/C2=C(C)CCCC2(C)C)cc1	> 100	15.7	23.9	58.7	19.6	–
CC1=C(/C=C/C(=O)/C=C/c2ccoc2)C(C)(C)CCC1	> 100	88.4	56.8	50.3	100	–
CC1=C(/C=C/C(=O)/C=C/C=C/c2ccccc2)C(C)(C)CCC1	> 100	> 100	23.4	35.4	46.7	–
